Experimental findings from US4405619A, “Antiinflammatory substituted-1,2,4-triazolo[4,3-b]-1,2,4-triazines” (Diamond Shamrock Corporation, priority 1981, dated 1983) are described below.

For assay [1], the system named is carrageenin-induced edema. The assay is described as follows: Carrageenin-induced edema (antiinflammatory) assay, rat hind paw. The assay is classed as in vivo, rat (Long Evans strain, male). Conditions: for ED50: 3 h, oral, dose which reduced edema formation by about 25% or more vs. mean control response in 50% of the animals; for inhibition in vivo at 200 mg/kg: 200 mg/kg oral. The protocol: The procedure employed is a modification of the method of Winter et al., Proc. Soc. Exptl. Biol. Med., 111:544 (1962). The device used for measurement of the paw volume is an adaptation of the water displacement procedure described by Adamkiewicz et al., Can. J. Biochem. Physiol., 33:332 (1955). Test compounds were administered orally, one hour prior to the intraplanter injection of 0.05 mL. of sterile 1.0% solution of carrageenin into the left hind paw of male rats (Long Evans strain) weighing between about 130-200 g. At peak swelling time (3 hrs.) the volume of edema was calculated by differential paw volumes.
Selected compounds of the invention were further tested to determine their ED50 values. The ED50 value is defined as that dose which reduced edema formation by about 25% or more compared with the mean control response (parallel run) in 50% of the animals. Typical results of these tests appear in Table II.
On the technique in general: The carrageenan paw model is a standard test of acute inflammation.

The next assay has as its system phenylquinone writhing. The assay is described as follows: Phenylquinone writhing test (analgesic assay). The assay is classed as in vivo, mouse (Carworth CF1, male). Conditions: for Phenylquinone Writhing Assay (% Control), percent analgesia, 15 min.: 15 min. after administration; for Phenylquinone Writhing Assay (% Control), percent analgesia, 30 min.: 30 min. after administration; for Phenylquinone Writhing Assay (% Control), percent analgesia, 60 min.: 60 min. after administration. The protocol:
Phenylquinone writhing test was employed to evaluate analgesic activity for selected compounds for the present invention according to the following procedure:
Phenylquinone (phenyl-p-benzoquinone, No. 7104, Eastman Organic Chemicals) is made up as a 0.02% aqueous solution and 5% ethyl alcohol. Phenylquinone solutions are made up fresh twice daily. Standard reference agents and the test compounds are dissolved or suspended in a 0.25% methylcellulose solution. A control group consisting of 10 mice (Carworth CF1 male mice) are administered the 0.02% phenylquinone solution at a dose of 0.25 mL./mouse. The mice are housed individually and observed closely for 10 min. for exhibition of writhing. The onset of writhing occurs within 3 min. and 100% of the mice must writh within 10 min. Test compounds are administered orally to groups of 10 mice. The volume given is 0.01 mL. per gram of body weight. Activity can be studied at 15, 30, 60 and 120 min. after oral administration. After the designated time interval of a dose group has elapsed, the mice are challenged with phenylquinone intraperitoneally. Complete blocking of the writhing syndrome for the 10-min. observation period in any one mouse is considered a positive analgesic response for that mouse. Conversely, if any mouse wriths definitely once, it is considered not to be protected. The number of mice not writhing in a group multiplied by 10 equals percent analgesia for that dose at the time interval.
For orientation: An intraperitoneal irritant provokes the stretching counted in writhing tests.

The mark [2] stands for this setting: Rattus norvegicus, 1 hour before carrageenin, edema at peak swelling time (3 hrs.), read-out: % Reduction of Edema.

The structures appear in SMILES notation.

The molecule `Cc1nnc2nc(-c3cccc(Cl)c3)cnn12` [Example 1, 1,2,4-triazolo[4,3-b]-1,2,4-triazine, 3-methyl-7-(3-chlorophenyl)] came in with a median effective dose (ED50) in assay [1] (Rattus norvegicus) of 30 mg/kg. Besides, the inhibition in vivo at 200 mg/kg in assay [1] (setting [2]) was found to be 39%.

Consider `COCc1nnc2nc(-c3ccccc3)cnn12` [Example 2, 1,2,4-triazolo[4,3-b]-1,2,4-triazine, 3-methoxymethyl-7-phenyl], for which, in assay [1] (setting [2]), the inhibition in vivo at 200 mg/kg is 26%. As to `Oc1nnc2nc(-c3ccccc3)cnn12` [Example 3, 1,2,4-triazolo[4,3-b]-1,2,4-triazine, 3-hydroxy-7-phenyl], the inhibition in vivo at 200 mg/kg in assay [1] (setting [2]) came to 22%. Consider `CC(C)c1nnc2nc(-c3ccccc3)cnn12` [Example 4, 1,2,4-triazolo[4,3-b]-1,2,4-triazine, 3-isopropyl-7-phenyl], for which, in the assay on phenylquinone writhing (100 mg/kg oral), the “Phenylquinone Writhing Assay (% Control), percent analgesia, 15 min.” value amounted to 10%; the “Phenylquinone Writhing Assay (% Control), percent analgesia, 30 min.” value was found to be 20%; the “Phenylquinone Writhing Assay (% Control), percent analgesia, 60 min.” value came out at 20%. The inhibition in vivo at 200 mg/kg in assay [1] (setting [2]) was 18%. Take `CCc1nnc2nc(-c3ccccc3)cnn12` [Example 5, 1,2,4-triazolo[4,3-b]-1,2,4-triazine, 3-ethyl-7-phenyl]: in the assay on phenylquinone writhing (100 mg/kg oral), the “Phenylquinone Writhing Assay (% Control), percent analgesia, 15 min.” value turned out to be 30%; the “Phenylquinone Writhing Assay (% Control), percent analgesia, 30 min.” value came out at 30%; the “Phenylquinone Writhing Assay (% Control), percent analgesia, 60 min.” value is recorded as 70%. For the same molecule, the 50% effective dose (ED50) in assay [1] (Rattus norvegicus) stood at 100 mg/kg. Further, in assay [1] (setting [2]), the inhibition in vivo at 200 mg/kg is 40%. As for `CC(C)c1nnc2nc(-c3ccc(Cl)c(Cl)c3)cnn12` [Example 6, 1,2,4-triazolo[4,3-b]-1,2,4-triazine, 3-isopropyl-7-(3',4'-dichlorophenyl)], the inhibition in vivo at 200 mg/kg in assay [1] (setting [2]) is 33%. On to `Clc1ccc(-c2cnn3cnnc3n2)cc1Cl` [Example 7, 1,2,4-triazolo[4,3-b]-1,2,4-triazine, 7-(3',4'-dichlorophenyl)], for which, in the assay on phenylquinone writhing (100 mg/kg oral), the “Phenylquinone Writhing Assay (% Control), percent analgesia, 15 min.” value stood at 30%; the “Phenylquinone Writhing Assay (% Control), percent analgesia, 30 min.” value is recorded as 50%; the “Phenylquinone Writhing Assay (% Control), percent analgesia, 60 min.” value amounted to 30%. The molecule further yielded a 50% effective dose (ED50) in assay [1] (Rattus norvegicus) of 1 mg/kg. Besides, in assay [1] (setting [2]), the inhibition in vivo at 200 mg/kg was determined as 36%. `COCc1nnc2nc(-c3ccc(C)cc3)cnn12` [Example 8, 1,2,4-triazolo[4,3-b]-1,2,4-triazine, 3-methoxymethyl-7-(4'-methylphenyl)]: the “% Reduction of Edema” value in assay [1] (100 mg/kg oral, 1 hour before carrageenin, edema at peak swelling time (3 hrs.)) came out at 16%.

With `Cc1nnc2nc(-c3ccccc3)c(-c3ccccc3)nn12` [Example 9, 1,2,4-triazolo[4,3-b]-1,2,4-triazine, 3-methyl-6,7-diphenyl], the inhibition in vivo at 200 mg/kg in assay [1] (setting [2]) is 35%.

On to `Clc1ccc(-c2cnn3cnnc3n2)cc1` [Example 10, 1,2,4-triazolo[4,3-b]-1,2,4-triazine, 7-(4'-chlorophenyl)], for which it took a dose of 10 mg/kg to reach the 50% effect level in assay [1] (Rattus norvegicus) (ED50). Also, the inhibition in vivo at 200 mg/kg in assay [1] (setting [2]) is 27%. As to `Cc1nnc2nc(-c3ccccc3)cnn12` [Example 12, 1,2,4-triazolo[4,3-b]-1,2,4-triazine, 3-methyl-7-phenyl], the inhibition in vivo at 200 mg/kg in assay [1] (setting [2]) was determined as 70%. `c1ccc(-c2cnn3cnnc3n2)cc1` [Example 13, 1,2,4-triazolo[4,3-b]-1,2,4-triazine, 7-phenyl]: in the assay with phenylquinone writhing (50 mg/kg oral), the “Phenylquinone Writhing Assay (% Control), percent analgesia, 15 min.” value stood at 20% and the “Phenylquinone Writhing Assay (% Control), percent analgesia, 30 min.” value is 20%. The inhibition in vivo at 175 mg/kg in assay [1] (Rattus norvegicus, 175 mg/kg oral, 1 hour before carrageenin, edema at peak swelling time (3 hrs.), read-out: % Reduction of Edema) worked out at 82%. As to `FC(F)(F)c1nnc2nc(-c3ccccc3)cnn12` [Example 15, 1,2,4-triazolo[4,3-b]-1,2,4-triazine, 3-trifluoromethyl-7-phenyl], the inhibition in vivo at 200 mg/kg in assay [1] (setting [2]) was found to be 30%.

Take `c1ccc(-c2nc3nncn3nc2-c2ccccc2)cc1` [Example 22, 1,2,4-triazolo[4,3-b]-1,2,4-triazine, 6,7-diphenyl]: the inhibition in vivo at 200 mg/kg in assay [1] (setting [2]) worked out at 32%.

`CC(C)c1nnc2nc(-c3ccccc3)c(-c3ccccc3)nn12` [Example 23, 1,2,4-triazolo[4,3-b]-1,2,4-triazine, 3-isopropyl-5,6-diphenyl] registered an ED50 in assay [1] (Rattus norvegicus) of 30 mg/kg. For the same molecule, the inhibition in vivo at 200 mg/kg in assay [1] (setting [2]) came to 37%. Take `Cc1nc2nnc(C)n2nc1C` [Example 25, 1,2,4-triazolo[4,3-b]-1,2,4-triazine, 3,6,7-trimethyl]: in assay [1] (setting [2]), the inhibition in vivo at 200 mg/kg came out at 49%.

On to `Cc1nnc2nc(-c3ccccc3Cl)cnn12` [Example 26, 1,2,4-triazolo[4,3-b]-1,2,4-triazine, 3-methyl-7-(2'-chlorophenyl)], for which the inhibition in vivo at 200 mg/kg in assay [1] (setting [2]) was 56%. Still for that read-out and setting: as for `Clc1cccc(-c2cnn3cnnc3n2)c1` [Example 28, 1,2,4-triazolo[4,3-b]-1,2,4-triazine, 7-(3'-chlorophenyl)], the figure is 21%; as for `Clc1ccccc1-c1cnn2cnnc2n1` [Example 36, 1,2,4-triazolo[4,3-b]-1,2,4-triazine, 7-(2'-chlorophenyl)], 65%.

By ED50 is commonly meant the dose that gives a 50% effect, or the effect in half of the subjects.
